In assay [1] the test system is Actinomyces viscosus (ATCC 15987). The assay can be described thus: Disc agar diffusion test. The conditions noted are these: 6 mm paper disc, 37, anaerobic, 24 hours, mean±S.D. (n=3); zone not over 6 mm = negative. The assay is classed as cell-based. The method, then: (§1) Lactobacillus fermentum SG-[…] was cultured in liquid medium. MRS medium was used in this embodiment. […]. The fermentation broth was concentrated into 30-fold of original concentration and dialyzed with SPECTRA/POR® Dialysis Membrane (MWCO:3500, Spectrum Laboratories Inc, CA) for 48 hours. Lactobacillus fermentum SG-[…] and concentrate fermentation product were diluted into various concentrations according to experimental requirements. Disc agar diffusion test, broth dilution method, and co-cultivation test of Lactobacillus fermentum SG-[…] with Streptococcus mutans (ATCC 25175), Streptococcus sanguis (ATCC 49295), Porphyromonas gingivalis (ATCC 33277), and Actinomyces viscosus (ATCC 15987) were separately performed to understand the inhibition of pathogen growth. Above four pathogens strains were purchased from Bioresource Collection and Research Center of Food Industry Research and Development Institute in Taiwan or ATCC. […] Dip bacteria culture with sterile cotton swab for 3 seconds, and each bacteria was smeared on agar plates in three directions to evenly distribute the incoculum. After dialyzing 30-fold fermentation product of Lactobacillus fermentum SG-[…], adjust concentrate to 4-fold concentrate (LFP4), 2-fold concentrate (LFP2) and 1-fold (LFP1) (unconcentrated fermentation broth). […] The diameter of sterile paper disc was 6 mm. The positive bacterial inhibition effect was determined by over 6 mm bacterial inhibition zone. Otherwise, it was defined as negative bacterial inhibition effect. The cultural condition was under the temperature of 37 for 24 hours. The paper disc was used in control group containing tetracycline. The inhibition zone value was shown as mean±S.D. (n=3).
(In general: A growth-free zone around the sample is the usual read-out of agar diffusion tests.)

Assay [2] concerns Porphyromonas gingivalis (ATCC 33277). The assay can be described thus: Disc agar diffusion test. The assay is classed as cell-based. The conditions noted are these: 6 mm paper disc, 37, anaerobic, 24 hours, mean±S.D. (n=3); zone not over 6 mm = negative. The procedure:
as §1

Assay [3] relates to Streptococcus mutans (ATCC 25175). As to the kind of experiment: Disc agar diffusion test. The assay is classed as cell-based. The conditions noted are these: 6 mm paper disc, 37, anaerobic, 24 hours, mean±S.D. (n=3); zone not over 6 mm = negative. The method, then:
as §1

In assay [4] the test system is Streptococcus sanguis (ATCC 49295). As to the kind of experiment: Disc agar diffusion test. The class given is cell-based. The settings on record: 6 mm paper disc, 37, anaerobic, 24 hours, mean±S.D. (n=3); zone not over 6 mm = negative. The method, then:
as §1

Assay [5] concerns artificially induced periodontal disease (ligature wire, Streptococcus mutans inoculated in gum tissue). The assay can be described thus: Evaluation of preventive effect for animal periodontal disease. The assay is classed as in vivo, Balb/c mice. The settings on record: prevention group; for mice periodontal pocket depth: mean±S.D., listed as pTC. The procedure: (§2) This trial included treatment groups and control groups. The-treatment group of Lactobacillus fermentum SG-A95 were divided into 6 groups as follows: 3 groups of dialyzed Lactobacillus fermentum SG-A95 fermentation product concentrate such as 4-fold, 2-fold, and 1-fold (unconcentrated fermentation broth) and 3 groups of Lactobacillus fermentum SG-A95 in various numbers of bacteria such as 1×10^9, 2×10^9 and 5×10^9. Two control groups were treated with 0.267 mg/mL of tetracycline and distilled water.
Twelve of 8-week-old female Balb/c mice were selected for each group (Table 2). The mice were administered with various concentrations of Lactobacillus fermentum SG-A95 fermentation product or live Lactobacillus fermentum SG-A95, and 1 mL of 0.267 mg/mL tetracyccline or distilled water separately. […] Their pathological symptoms were observed and recorded until sacrificing all animals. Until the control group (feeding with distilled water, mock-treated group) showing gum swelling and dental plaque appearance diagnosed by chief dentists, the ligature wire was removed and inoculation of dental pathogen was stopped. At day 4, 8, 12, and 16 after wire removal, mice periodontal pocket depth was examined, 3 mice from each group were killed for blood sampling and samples were collected for histological analysis.
(§3) Control group was used as a standard to examine subjects from each group by Mann-Whitney test.
(§4) Experimental data was shown as mean±S.D. The statistical variation of treatment groups and control groups of mice periodontal pocket was performed by One-Way ANOVA and Dunnett multiple post hoc comparison in longitudinal study, and by One-Way ANOVA and LSD multiple post hoc comparison in cross-sectional study. Besides, Mann-Whitney test was used to examine the number of periodontal pocket improving individuals. The statistical significance level of p value was 0.05.

Assay [6] has the same test system. As to the kind of experiment: Evaluation of therapeutic effect for animal periodontal disease. The class given is in vivo, Balb/c mice. The settings on record: treatment group; for mice periodontal pocket depth: mean±S.D. The procedure:
as §2
Twelve of 8-week-old female Balb/c mice were selected for each group (Table 3). […] After diagnosis of diseased tissue by chief dentists, they were administered different concentrations of Lactobacillus fermentum SG-A95 fermentation product, live Lactobacillus fermentum SG-A95, 1 mL of 0.267 mg/mL tetracycline or distill water every day. The symptoms were recorded. The wire was removed at the beginning of the treatment and stop periodontal pathogen inoculation. At day 4, 8, 12, and 16 after wire removal, mice periodontal pocket depth was examined. 3 mice from each group were killed for blood sampling and histological analysis.
as §3, §4

For the compound `CN(C)[C@@H]1C(O)=C(C(N)=O)C(=O)[C@@]2(O)C(O)=C3C(=O)c4c(O)cccc4[C@@](C)(O)[C@H]3C[C@@H]12` [tetracycline], the “Bacterial inhibition zone, Actinomyces viscosus” value in assay [1] amounted to 48.2 ± 2.4 mm. In addition, the “Bacterial inhibition zone, Porphyromonas gingivalis” value in assay [2] was 33.4 ± 2.2 mm. For the same compound, in assay [3], the “Bacterial inhibition zone, Streptococcus mutans” value is reported as 29.7 ± 2.0 mm. Besides, in assay [4], the “Bacterial inhibition zone, Streptococcus sanguis” value was found to be 25.9 ± 1.2 mm. Further, the “periodontal pocket improvement percentage (percentage of improving individual)” value in assay [5] (Day 4, against pMT by Mann-Whitney test) worked out at 62%; in assay [5] (Day 8, against pMT by Mann-Whitney test) it was 50%; in assay [5] (Day 12, against pMT by Mann-Whitney test), 71%; in assay [5] (Day 16, against pMT by Mann-Whitney test), 100%; in assay [6] (Day 4, against tMT by Mann-Whitney test), 30%; in assay [6] (Day 8, against tMT by Mann-Whitney test), 20%. The “periodontal pocket improvement percentage (percentage of improving individual)” value in assay [6] (Day 12, against tMT by Mann-Whitney test) worked out at 47%; in assay [6] (Day 16, against tMT by Mann-Whitney test), 33%. Besides, the “mice periodontal pocket depth” value was determined as 0.84 ± 0.50 mm in assay [5] (Day 4 after wire removal); 0.70 ± 0.34 mm in assay [5] (Day 8 after wire removal); 0.56 ± 0.26 mm in assay [5] (Day 12 after wire removal); 0.49 ± 0.25 mm in assay [5] (Day 16 after wire removal); 1.05 ± 0.64 mm in assay [6] (Day 4 after wire removal, listed as pTC); 1.05 ± 0.64 mm in assay [6] (Day 4 after wire removal, listed as tTC). Moreover, the “mice periodontal pocket depth” value came out at 0.89 ± 0.44 mm in assay [6] (Day 8 after wire removal, listed as pTC); 0.89 ± 0.44 mm in assay [6] (Day 8 after wire removal, listed as tTC); 0.63 ± 0.37 mm in assay [6] (Day 12 after wire removal); 0.61 ± 0.34 mm in assay [6] (Day 16 after wire removal, listed as pTC); 0.48 ± 0.33 mm in assay [6] (Day 16 after wire removal, listed as tTC).
